Values joined by “and” are separate entries in the source; they are usually repeats but may differ in a detail not shown here. Equal entries are not always repeated.
How the values were obtained:
Format in all cases: cell-based
Elastin mRNA = assay: Various anti-aging related mRNA expression experiment (qPCR), Elastin; conditions: HFF-1 cells, 5 μg/mL HPR, 9 μg/mL retinyl propionate, alone or in combination, individual replicates
Experimental: (§1) RNA extraction: a cell sample was taken, a supernatant was removed, 1 mL of a TRIZON reagent was added into each well of a 6-well plate, the cells were stood, cracked, and transferred to a 1.5-mL EP tube, 0.2 mL of chloroform was added, and the mixture was shaken, uniformly mixed, stood on ice, and centrifuged at 12,000 rpm/min at 4° C. for 15 min; about 400 μL of an obtained supernatant was taken, isopropanol with the same volume was added, the mixture was lightly shaken, stood on ice at 4° C., and centrifuged at 12,000 rpm/min for 10 min; an obtained supernatant was removed, 1 mL of 75% ethanol was added into an obtained precipitate, an EP tube was shaken to float the precipitate to achieve a washing effect, the obtained product was centrifuged at 7,500 rpm/min at 4° C. for 10 min; an obtained supernatant was removed, a part of ethanol was left, the product was centrifuged at 7,500 rpm/min at 4° C. for 5 min, and residual ethanol was removed from the inner wall of the tube; and an obtained supernatant was removed, the liquid was aspirated, and a certain amount of RNA-free water was added for resuspension and dissolution. 2 μL of the product was analyzed on a SpectraMax iD3 multifunctional microplate reader for detecting the RNA concentration and A260/A280 value.
(§2) cDNA synthesis: the mRNA was subjected to reverse transcription into cDNA by using a HiFiScript cDNA synthesis kit.
(§3) Fluorescence quantification: the expression of the Elastin mRNA in the cell sample was detected by mixing an UltraSYBR Mixture premixed solution and the cDNA, and loading the mixture into a machine.
(§4) 3.1 Experimental content: an effect of 5 μg/mL of HPR and 9 μg/mL of retinyl propionate alone or in combination on expressions of collagen-related mRNAs in HFF-1 cells.
(§5) 3.2 Experimental method: the HFF-1 cells were seeded in a 96-well plate (3,000 cells/mL and […]) and administrated in a 5 μg/mL HPR group, a 9 μg/mL retinyl propionate group, and a 5 μg/mL HPR+9 μg/mL retinyl propionate group. A blank control was set at the same time. Total RNA of the cells was extracted at 24 h, 48 h, and 72 h and the expressions of the collagen-related mRNAs were detected by qPCR. (The specific operation steps referred to section 1.2)
(§6) 3.3 Experimental results: data was input by the Excel, subjected to statistical processing by a Prism (Version 7) software package, and expressed as meantstandard error. Each data was subjected to a one-way analysis of variance and p<0.05 was considered to be statistically different.

Col-IV mRNA = assay: Various anti-aging related mRNA expression experiment (qPCR), Col-IV; conditions: HFF-1 cells, 5 μg/mL HPR, 9 μg/mL retinyl propionate, alone or in combination, individual replicates
Experimental: as §1, §2, §3, §4, §5, §6

HFF-1 cells = assay: Cytotoxicity experiment (CCK-8 cell viability); conditions: 24 h, 5 μg/mL HPR, 9 μg/mL retinyl propionate, alone or in combination, individual replicates
Experimental: 2.1 Experimental content: an effect of 5 μg/mL of HPR and 9 μg/mL of retinyl propionate alone or in combination on the viability of HFF-1 cells.
2.2 Experimental method: the HFF-1 cells were seeded in a 96-well plate (3,000 cells/mL and 100 μL per well) and administrated in a 5 μg/mL HPR group, a 9 μg/mL retinyl propionate group, and a 5 μg/mL HPR+9 μg/mL retinyl propionate group. A blank control was set at the same time. The cell viability after 24 h of the administration treatment was detected using a CCK-8 kit.
2.3 Experimental results: data was input by the Excel, subjected to statistical processing by a Prism (Version 7) software package, and expressed as meantstandard error. Each data was subjected to a one-way analysis of variance and p<0.05 was considered to be statistically different.

RARB mRNA = assay: Various anti-aging related mRNA expression experiment (qPCR), RARB; conditions: HFF-1 cells, 5 μg/mL HPR, 9 μg/mL retinyl propionate, alone or in combination, individual replicates
Experimental: as §1, §2, §3, §4, §5, §6

CRBPI mRNA = assay: Various anti-aging related mRNA expression experiment (qPCR), CRBPI; conditions: HFF-1 cells, 5 μg/mL HPR, 9 μg/mL retinyl propionate, alone or in combination, individual replicates
Experimental: as §1, §2, §3, §4, §5, §6

CCC(=O)OC/C=C(C)/C=C/C=C(C)/C=C/C1=C(C)CCCC1(C)C [retinyl propionate]
Elastin mRNA expression (blank control 1) (Elastin mRNA; after 24 h): 1.778 and 16.11 and 1.157 | Elastin mRNA expression (blank control 1) (Elastin mRNA; after 48 h): 1.866 and 2.77 and 3.01 | Elastin mRNA expression (blank control 1) (Elastin mRNA; after 72 h): 5.736 and 6.727 and 1.275 | Col IV mRNA expression (blank control 1) (Col-IV mRNA; after 24 h): 1 and 1.357 and 1.079 | Col IV mRNA expression (blank control 1) (Col-IV mRNA; after 48 h): 1.385 and 1.485 and 1.117 | Col IV mRNA expression (blank control 1) (Col-IV mRNA; after 72 h): 1.625 and 1.189 and 0.9794 | viability of HFF-1 cells (blank control 100) (HFF-1 cells): 100.2 and 100.8 and 95.66 | RARB mRNA expression (blank control 1) (RARB mRNA; after 24 h): 1.301 and 1.214 and 2.828 | RARB mRNA expression (blank control 1) (RARB mRNA; after 48 h): 1.301 and 1.602 and 1.079 | RARB mRNA expression (blank control 1) (RARB mRNA; after 72 h): 1.803 and 1.165 and 1.301 | CRBPI mRNA expression (blank control 1) (CRBPI mRNA; after 24 h): 1.58 and 1.866 and 1.042 | CRBPI mRNA expression (blank control 1) (CRBPI mRNA; after 48 h): 1.275 and 1.647 (2×) | CRBPI mRNA expression (blank control 1) (CRBPI mRNA; after 72 h): 3.272 and 1.087 and 1.072

CC1=C(/C=C/C(C)=C/C=C/C(C)=C/C(=O)OCC(=O)C(C)(C)C)C(C)(C)CCC1 [HPR, hydroxypinacolone retinoate]
Elastin mRNA expression (blank control 1) (Elastin mRNA; after 24 h): 1.778 and 14.52 and 1.029 | Elastin mRNA expression (blank control 1) (Elastin mRNA; after 48 h): 2.928 and 2.809 and 3.317 | Elastin mRNA expression (blank control 1) (Elastin mRNA; after 72 h): 1.963 and 3.52 and 4.112 | Col IV mRNA expression (blank control 1) (Col-IV mRNA; after 24 h): 1.357 and 1.014 and 1.223 | Col IV mRNA expression (blank control 1) (Col-IV mRNA; after 48 h): 1.474 and 1.094 and 1.945 | Col IV mRNA expression (blank control 1) (Col-IV mRNA; after 72 h): 1.165 and 1.265 and 0.9395 | viability of HFF-1 cells (blank control 100) (HFF-1 cells): 104.9 and 101.4 and 100.3 | RARB mRNA expression (blank control 1) (RARB mRNA; after 24 h): 1.079 and 3.732 and 5.063 | RARB mRNA expression (blank control 1) (RARB mRNA; after 48 h): 1.659 and 1.189 and 3.605 | RARB mRNA expression (blank control 1) (RARB mRNA; after 72 h): 2.395 and 1.042 and 4.925 | CRBPI mRNA expression (blank control 1) (CRBPI mRNA; after 24 h): 3.223 and 1.094 and 1.597 | CRBPI mRNA expression (blank control 1) (CRBPI mRNA; after 48 h): 1.094 and 1.488 and 1.58 | CRBPI mRNA expression (blank control 1) (CRBPI mRNA; after 72 h): 4.017 and 1.79 and 3.295
